The values that follow come from patent US8071611B2, “Spirocyclic heterocyclic derivatives and methods of their use” (Adolor Corporation, priority 2003, dated 2011).

Where a name gives a salt, the structure may show the parent alone.

The subject of experiment [1] is FCA-induced hyperalgesia in rats. Description: Freunds Complete Adjuvant (FCA)-induced hyperalgesia, paw pressure thresholds. It is filed as in vivo. Here is the method: Rats were injected intraplantar with FCA and 24 h later treated with tested compounds administered orally. Paw Pressure Thresholds (PPT) was assessed 30, 60, 120, and 240 minutes after drug treatment.

The test system of experiment [2] is castor oil-induced diarrhea in mice. As to the kind of experiment: Castor oil-induced diarrhea. Conditions: Mus musculus, sc, read-out: ED50 (incidence of castor oil-induced diarrhea). It is filed as in vivo. The procedure: Mice were fasted overnight with water ad libitum. Mice were weighed, dosed orally with 0.6 mL of castor oil and placed in individual cubicles (11 cm×10 cm) lined with a pre-weighed sheet of absorbent paper. Thirty min after receiving castor oil, mice were injected s.c with tested compound. Seventy-five min after dosing with castor oil, the mice and absorbent paper were reweighed and the number of mice with diarrhea (defined as wet, unformed stool) was determined.
Percent inhibition by tested compounds in castor oil-induced diarrhea assay was determined by the following formula: […]

In experiment [3] the test system is acetic acid-induced writhing in mice. Description: Acetic acid-induced writhing. It is filed as in vivo, Male ICR mice. The following applies: 30 mg/kg (s.c.). Here is the method:
Male ICR mice weighing 20-25 g are injected s.c. with either vehicle or test compound 15 min before they are injected intraperitoneally with 0.6% acetic acid. […] treatment with acetic acid, the number of writhes is counted for 10 minutes. Dose response curves are expressed as the percent inhibition of acetic acid induced writhing, when compared to the mean number of writhes observed in the vehicle-treated mice. The mean percent inhibition (% I) of acetic acid-induced writhing for drug-treated mice is calculated according to the following formula: […]
The mean individual response is the mean number of writhes in mice treated with test compound. The mean vehicle response is the mean number of writhes in mice treated with vehicle.
Male ICR mice weighing 20-25 g are injected s.c. with either vehicle or test compound 15 minutes before they are injected intraperitoneally with 0.6% acetic acid. At 5 minutes after treatment with acetic acid, the number of writhes is counted for 10 minutes. Dose response curves are expressed as the percent inhibition of acetic acid induced writhing, when compared to the mean number of writhes observed in the vehicle-treated mice. The mean percent inhibition (% I) of acetic acid-induced writhing for drug-treated mice is calculated according to the following formula:
[formula] […]

Experiment [4] has as its target T1, cloned human κ opioid receptor (Homo sapiens, UniProt P41145).
T1 construct: expressed in transfected cells; host or cells: CHO cells (membranes)
As to the kind of experiment: Receptor binding: inhibition of [3H]diprenorphine binding to cloned human κ opioid receptor. Conditions: read-out: % Inhibition at 10 μM (κ). Here is the method: (§1) IC50 values were obtained by nonlinear analysis of the data using GraphPad Prism version 3.00 for Windows (GraphPad Software, San Diego). Ki values were obtained by Cheng-Prusoff corrections of IC50 values.
After dilution in buffer A and homogenization as before, membrane proteins (10-80 μg) in 250 μL were added to mixtures containing test compound and [^3H]diprenorphine (0.5 to 1.0 nM, 40,000 to 50,000 dpm) in 250 μL of buffer A in 96-well deep-well polystyrene titer plates (Beckman). After incubation at room temperature for one hour, the samples were filtered through GF/B filters that had been presoaked in a solution of 0.5% (w/v) polyethylenimine and 0.1% (w/v) bovine serum albumin in water. The filters were rinsed 4 times with 1 mL of cold 50 mM Tris HCl, pH 7.8 and radioactivity remaining on the filters determined by scintillation spectroscopy. Nonspecific binding was determined by the minimum values of the titration curves and was confirmed by separate assay wells containing 10 μM naloxone.
To determine the equilibrium dissociation constant for the inhibitors (Ki), radioligand bound (cpm) in the presence of various concentrations of test compounds was measured. The concentration to give half-maximal inhibition (EC50) of radioligand binding was determined from a best nonlinear regression fit to the following equation,
The nonlinear regression fit was performed using the program Prism® (GraphPad Software, San Diego, Calif.). The Ki values were then determined from the EC50 values by the following equation,
[formula] where [ligand] is the concentration of radioligand and Kd is the equilibrium dissociation constant for the radioligand.
as §1
[formula] where [ligand] is the concentration of radioligand and Kd is the equilibrium dissociation constant for the radioligand. Receptor-Mediated [^35S]GTP[…]S Binding

A word on the ED50: it is the midpoint of the dose-response relation. As usually defined, the inhibition is the change of the read-out against control, counted positive when it falls.

T1 sequence (P41145 whole entry): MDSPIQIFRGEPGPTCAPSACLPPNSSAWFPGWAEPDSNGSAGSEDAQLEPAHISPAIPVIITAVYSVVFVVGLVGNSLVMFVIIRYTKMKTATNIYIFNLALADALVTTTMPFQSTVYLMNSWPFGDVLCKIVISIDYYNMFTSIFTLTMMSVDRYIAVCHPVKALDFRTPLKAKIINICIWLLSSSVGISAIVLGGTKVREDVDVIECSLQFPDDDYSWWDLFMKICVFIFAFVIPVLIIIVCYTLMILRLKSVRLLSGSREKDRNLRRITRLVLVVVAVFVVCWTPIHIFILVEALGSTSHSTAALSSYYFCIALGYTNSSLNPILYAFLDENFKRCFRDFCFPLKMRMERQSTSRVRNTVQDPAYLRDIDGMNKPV

Turning to `CCN(CC)C(=O)c1ccc(C2=CC3(CCNCC3)Oc3ccccc32)cc1` [Example Z1, 4-[(4-N,N-diethylaminocarbonyl)phenyl]-spiro[2H,1-benzopyran-2,4′-piperidine]hydrochloride], the ED50 in experiment [1] (Rattus norvegicus, po) came to 2.5 mg/kg; in experiment [2] it was 8.7 mg/kg. Besides, the “increase of Paw Pressure Thresholds (PPT) in the inflamed paw” value in experiment [1] (inflamed paw, 1-2 h after oral administration) was 170-180%. For the same compound, the “inhibition of acetic acid-induced writhing” value in experiment [3] is reported as 69%. For the same compound, in experiment [4], the inhibition at 10 µM was determined as 32%.
